Measured values taken from ChEMBL document CHEMBL5260810, “Inhibition of bromodomain-containing protein 9 for the prevention of epigenetically-defined drug resistance” (Bioorg Med Chem Lett, 2017).

Tests used:
A-375 = experiment: Cytotoxicity against human A-375 cells measured after 8 days; format: functional, cell-based; conditions: A-375, 192 h
U-937 = experiment: Cytotoxicity against human U-937 cells measured after 8 days; format: functional, cell-based; conditions: U-937, 192 h
NCI-H727 = experiment: Cytotoxicity against human NCI-H727 cells measured after 8 days; format: functional, cell-based; conditions: NCI-H727, 192 h
[1] = target: High affinity nerve growth factor receptor (Homo sapiens) (UniProt P04629); experiment: Inhibition of TrkA (unknown origin) at 1 uM relative to control
Chain of High affinity nerve growth factor receptor (Homo sapiens) (P04629 33-796 limits assumed): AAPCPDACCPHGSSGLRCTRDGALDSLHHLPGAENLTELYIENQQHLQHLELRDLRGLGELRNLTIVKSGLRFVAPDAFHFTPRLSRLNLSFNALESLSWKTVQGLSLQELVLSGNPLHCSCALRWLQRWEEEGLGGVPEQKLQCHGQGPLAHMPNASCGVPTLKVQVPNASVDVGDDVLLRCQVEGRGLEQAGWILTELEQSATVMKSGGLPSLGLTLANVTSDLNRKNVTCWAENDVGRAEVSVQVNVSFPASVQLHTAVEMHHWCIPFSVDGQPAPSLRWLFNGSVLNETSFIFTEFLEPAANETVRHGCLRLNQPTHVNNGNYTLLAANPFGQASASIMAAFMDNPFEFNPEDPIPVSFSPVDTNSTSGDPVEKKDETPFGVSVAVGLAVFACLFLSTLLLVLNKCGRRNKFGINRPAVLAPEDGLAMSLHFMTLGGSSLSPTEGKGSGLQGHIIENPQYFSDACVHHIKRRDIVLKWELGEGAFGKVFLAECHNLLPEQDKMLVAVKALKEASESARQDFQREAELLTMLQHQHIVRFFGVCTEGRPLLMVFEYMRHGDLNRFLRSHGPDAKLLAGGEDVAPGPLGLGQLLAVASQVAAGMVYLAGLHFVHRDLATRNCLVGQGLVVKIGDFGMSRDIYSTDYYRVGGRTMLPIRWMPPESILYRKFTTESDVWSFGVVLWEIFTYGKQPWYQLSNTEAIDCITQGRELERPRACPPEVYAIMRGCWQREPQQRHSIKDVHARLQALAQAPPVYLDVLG

[2] = target: Nucleosome-remodeling factor subunit BPTF (Homo sapiens, UniProt Q12830); experiment: Binding affinity to human partial length FALZ (S2791 to H2911 residues) expressed in bacterial expression system by BROMOscan assay
[3] = Cytotoxicity against human MOLM16 cells measured after 8 days; format: functional, cell-based, MOLM-16; conditions: MOLM16, 192 h
ChaGo-K-1 = experiment: Cytotoxicity against human ChaGo-K-1 cells measured after 8 days; format: functional, cell-based; conditions: ChaGo-K-1, 192 h
NCI-H1838 = experiment: Cytotoxicity against human NCI-H1838 cells measured after 8 days; format: functional, cell-based; conditions: NCI-H1838, 192 h
Hs-578T = experiment: Cytotoxicity against human Hs-578T cells measured after 8 days; format: functional, cell-based; conditions: 192 h
GP5d = experiment: Cytotoxicity against human GP5d cells measured after 8 days; format: functional, cell-based; conditions: 192 h
[4] = target: T1, Adenosine receptor A1 (Homo sapiens) (UniProt P30542); experiment: Displacement of [3H]-DPCPX from human recombinant adenosine A1 receptor at 10 uM after 60 mins by scintillation counting analysis relative to control
T1 sequence (whole entry): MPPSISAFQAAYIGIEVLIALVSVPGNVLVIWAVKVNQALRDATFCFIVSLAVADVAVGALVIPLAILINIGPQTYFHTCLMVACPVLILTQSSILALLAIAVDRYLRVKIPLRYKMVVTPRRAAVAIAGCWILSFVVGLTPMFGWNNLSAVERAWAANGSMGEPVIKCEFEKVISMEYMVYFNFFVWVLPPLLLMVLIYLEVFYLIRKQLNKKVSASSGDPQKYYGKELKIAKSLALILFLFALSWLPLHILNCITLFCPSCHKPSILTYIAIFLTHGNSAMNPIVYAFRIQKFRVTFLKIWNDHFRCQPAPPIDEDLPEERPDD

EPLC-272H = experiment: Cytotoxicity against human EPLC-272H cells measured after 8 days; format: functional, cell-based; conditions: 192 h
[5] = target: T2, Myosin light chain kinase (Homo sapiens) (UniProt Q32MK0); experiment: Inhibition of MYLK3 (unknown origin) at 1 uM relative to control
T2 sequence (whole entry): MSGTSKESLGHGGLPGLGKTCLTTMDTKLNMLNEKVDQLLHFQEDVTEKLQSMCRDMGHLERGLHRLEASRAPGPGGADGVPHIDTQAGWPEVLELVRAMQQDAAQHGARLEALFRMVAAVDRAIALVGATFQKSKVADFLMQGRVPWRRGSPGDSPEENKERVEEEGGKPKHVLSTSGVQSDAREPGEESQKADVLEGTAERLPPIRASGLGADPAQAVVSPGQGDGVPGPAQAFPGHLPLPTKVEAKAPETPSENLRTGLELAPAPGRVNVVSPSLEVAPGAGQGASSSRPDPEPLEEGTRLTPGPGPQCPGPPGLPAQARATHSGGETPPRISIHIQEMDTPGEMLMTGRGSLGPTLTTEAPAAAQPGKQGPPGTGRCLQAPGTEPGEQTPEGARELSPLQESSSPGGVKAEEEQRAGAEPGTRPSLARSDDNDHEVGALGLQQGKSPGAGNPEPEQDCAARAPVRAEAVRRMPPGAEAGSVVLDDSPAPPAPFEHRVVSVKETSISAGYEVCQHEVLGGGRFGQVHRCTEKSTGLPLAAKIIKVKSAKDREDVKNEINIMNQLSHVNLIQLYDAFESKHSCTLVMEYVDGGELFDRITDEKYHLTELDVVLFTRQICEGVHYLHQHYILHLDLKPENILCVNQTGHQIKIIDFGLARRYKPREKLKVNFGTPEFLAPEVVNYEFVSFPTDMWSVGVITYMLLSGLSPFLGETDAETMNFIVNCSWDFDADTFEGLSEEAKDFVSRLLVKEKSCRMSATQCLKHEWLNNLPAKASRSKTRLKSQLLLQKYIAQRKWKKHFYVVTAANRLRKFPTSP

[6] = target: Beta-2 adrenergic receptor (Homo sapiens) (UniProt P07550); experiment: Displacement of [3H](-)CGP 12177 from human recombinant beta2 adrenoceptor at 10 uM after 120 mins by scintillation counting analysis relative to control
Chain of Beta-2 adrenergic receptor (Homo sapiens) (P07550 whole entry, looked up): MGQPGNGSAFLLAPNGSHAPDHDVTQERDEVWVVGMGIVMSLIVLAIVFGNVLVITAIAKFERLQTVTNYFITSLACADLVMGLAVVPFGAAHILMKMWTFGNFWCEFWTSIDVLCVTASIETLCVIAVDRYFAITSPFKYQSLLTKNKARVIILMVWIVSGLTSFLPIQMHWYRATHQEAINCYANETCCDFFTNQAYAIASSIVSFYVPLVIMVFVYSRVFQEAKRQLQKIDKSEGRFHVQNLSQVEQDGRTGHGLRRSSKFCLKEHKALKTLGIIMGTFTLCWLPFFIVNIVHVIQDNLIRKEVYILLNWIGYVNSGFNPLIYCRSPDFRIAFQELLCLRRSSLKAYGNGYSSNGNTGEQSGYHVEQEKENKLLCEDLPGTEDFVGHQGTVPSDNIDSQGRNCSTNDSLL

[7] = Cytotoxicity against human HCC2279 cells measured after 8 days; format: functional, cell-based; conditions: HCC2279, 192 h
[8] = target: Receptor-interacting serine/threonine-protein kinase 2 (Homo sapiens) (UniProt O43353); experiment: Inhibition of RIPK2 (unknown origin) at 1 uM relative to control
Chain of Receptor-interacting serine/threonine-protein kinase 2 (Homo sapiens) (O43353 whole entry): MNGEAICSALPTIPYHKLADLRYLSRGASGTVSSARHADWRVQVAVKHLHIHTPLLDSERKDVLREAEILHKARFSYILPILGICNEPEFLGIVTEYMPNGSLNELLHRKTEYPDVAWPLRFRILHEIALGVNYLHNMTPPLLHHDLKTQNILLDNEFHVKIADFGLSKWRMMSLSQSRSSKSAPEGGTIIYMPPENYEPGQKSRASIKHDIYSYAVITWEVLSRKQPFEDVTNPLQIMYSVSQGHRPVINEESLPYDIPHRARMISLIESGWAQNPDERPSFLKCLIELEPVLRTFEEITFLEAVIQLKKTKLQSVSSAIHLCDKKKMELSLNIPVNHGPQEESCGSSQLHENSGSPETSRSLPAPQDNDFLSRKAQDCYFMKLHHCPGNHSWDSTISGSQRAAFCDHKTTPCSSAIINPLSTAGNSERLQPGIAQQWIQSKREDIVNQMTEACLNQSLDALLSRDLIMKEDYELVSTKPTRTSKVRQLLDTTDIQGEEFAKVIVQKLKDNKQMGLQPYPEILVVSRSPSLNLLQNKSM

[9] = Cytotoxicity against human NCI-H2106 cells measured after 8 days; format: functional, cell-based; conditions: NCI-H2106, 192 h
[10] = target: Histamine H1 receptor (Homo sapiens) (UniProt P35367); experiment: Displacement of [3H]pyrilamine from human recombinant histamine H1 receptor at 10 uM after 60 mins by scintillation counting analysis relative to control
Chain of Histamine H1 receptor (Homo sapiens) (P35367 whole entry): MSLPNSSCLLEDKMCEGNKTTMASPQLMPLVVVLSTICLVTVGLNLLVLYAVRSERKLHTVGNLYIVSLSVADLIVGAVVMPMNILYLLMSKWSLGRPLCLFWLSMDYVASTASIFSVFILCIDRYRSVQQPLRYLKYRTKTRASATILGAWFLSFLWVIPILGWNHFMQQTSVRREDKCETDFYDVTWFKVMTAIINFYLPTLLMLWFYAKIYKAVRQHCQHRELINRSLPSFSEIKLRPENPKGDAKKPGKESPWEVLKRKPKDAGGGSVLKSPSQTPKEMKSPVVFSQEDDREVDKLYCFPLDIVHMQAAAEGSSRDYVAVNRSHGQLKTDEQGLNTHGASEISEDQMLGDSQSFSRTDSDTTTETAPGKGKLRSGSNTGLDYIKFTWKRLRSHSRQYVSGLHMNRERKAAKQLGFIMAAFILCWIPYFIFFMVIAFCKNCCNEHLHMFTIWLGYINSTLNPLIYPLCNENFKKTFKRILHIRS

[11] = Cytotoxicity against human OVTOKO cells measured after 8 days; format: functional, cell-based; conditions: 192 h
[12] = target: cAMP-dependent protein kinase (PKA) (Homo sapiens) (UniProt P22694+P17612+P22612); experiment: Inhibition of PKA (unknown origin) at 1 uM relative to control; format: protein assay
[13] = target: T3, Serine/threonine-protein kinase Chk1 (Homo sapiens) (UniProt O14757); experiment: Inhibition of CHK1 (unknown origin) at 1 uM relative to control
T3 sequence (whole entry): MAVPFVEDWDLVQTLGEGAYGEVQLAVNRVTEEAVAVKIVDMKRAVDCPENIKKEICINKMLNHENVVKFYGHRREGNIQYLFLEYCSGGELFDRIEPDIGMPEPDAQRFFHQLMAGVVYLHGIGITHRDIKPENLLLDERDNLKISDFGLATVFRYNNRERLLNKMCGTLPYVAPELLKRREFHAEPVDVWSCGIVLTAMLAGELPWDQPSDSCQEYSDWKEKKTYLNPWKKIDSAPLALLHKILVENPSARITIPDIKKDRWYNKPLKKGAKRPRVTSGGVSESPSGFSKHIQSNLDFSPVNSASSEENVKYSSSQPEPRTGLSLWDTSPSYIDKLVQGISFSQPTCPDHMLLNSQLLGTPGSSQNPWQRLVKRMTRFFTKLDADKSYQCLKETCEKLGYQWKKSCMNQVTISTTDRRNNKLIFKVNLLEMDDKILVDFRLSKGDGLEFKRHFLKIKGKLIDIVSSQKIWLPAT

NCI-H460 = experiment: Cytotoxicity against human NCI-H460 cells measured after 8 days; format: functional, cell-based; conditions: NCI-H460, 192 h
[14] = target: Mitogen-activated protein kinase 14 (Homo sapiens) (UniProt Q16539); experiment: Inhibition of p38alpha (unknown origin) at 1 uM relative to control
Chain of Mitogen-activated protein kinase 14 (Homo sapiens) (Q16539 whole entry): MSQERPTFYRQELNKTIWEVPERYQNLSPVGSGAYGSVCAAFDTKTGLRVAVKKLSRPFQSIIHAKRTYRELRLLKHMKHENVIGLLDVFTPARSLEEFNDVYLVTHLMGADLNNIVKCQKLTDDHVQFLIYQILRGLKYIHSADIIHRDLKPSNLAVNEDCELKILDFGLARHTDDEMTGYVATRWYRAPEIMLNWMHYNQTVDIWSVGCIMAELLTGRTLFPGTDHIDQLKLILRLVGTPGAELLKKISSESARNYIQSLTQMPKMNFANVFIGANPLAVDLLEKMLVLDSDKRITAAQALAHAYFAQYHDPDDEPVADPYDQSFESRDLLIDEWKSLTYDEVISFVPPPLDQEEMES

SK-MES-1 = experiment: Cytotoxicity against human SK-MES-1 cells measured after 8 days; format: functional, cell-based; conditions: SK-MES-1, 192 h

| SMILES | IC50 (A-375) [µM] | IC50 (U-937) [µM] | IC50 (NCI-H727) [µM] | inhibition [1] [%] | Kd [2] [µM] | IC50 [3] [µM] | IC50 (ChaGo-K-1) [µM] | IC50 (NCI-H1838) [µM] | IC50 (Hs-578T) [µM] | IC50 (GP5d) [µM] | Activity [4] [%] | IC50 (EPLC-272H) [µM] | inhibition [5] [%] | Activity [6] [%] | IC50 [7] [µM] | inhibition [8] [%] | IC50 [9] [µM] | Activity [10] [%] | IC50 [11] [µM] | inhibition [12] [%] | further results |
| --- | --- | --- | --- | --- | --- | --- | --- | --- | --- | --- | --- | --- | --- | --- | --- | --- | --- | --- | --- | --- | --- |
| C/C=C/Cn1cc(-c2ccc(C(C)(C)O)cc2OC)c2cc[nH]c2c1=O | 20 | 20 | 20 | 12.5 | > 10 | 17.8 | 20 | 20 | 20 | 20 | 8 | 20 | 2 | 5 | 20 | -0.5 | 20 | 1 | 20 | 3 | inhibition [13]: 7%; IC50 (NCI-H460): 20 µM; inhibition [14]: 7%; IC50 (SK-MES-1): 20 µM |
| C/C=C/Cn1cc(-c2cc(OC)c(C(C)(C)O)cc2OC)c2cc(C)[nH]c2c1=O | – | – | – | – | > 10 | – | – | – | – | – | – | – | – | – | – | – | – | – | – | – | – |
| C/C=C/Cn1cc(-c2ccc(C(=O)N3CCOCC3)cc2)c2cc[nH]c2c1=O | 20 | 20 | 20 | 21.4 | > 10 | 9.59 | 20 | 20 | 20 | 20 | 10 | 20 | 1.4 | 1 | 20 | -4.6 | 20 | 0 | 17.7 | -6.8 | inhibition [13]: 3.4%; IC50 (NCI-H460): 20 µM; inhibition [14]: 0.9%; IC50 (SK-MES-1): 20 µM |
| C/C=C/Cn1cc(-c2cc(OC)c(C(=O)N3CCOCC3)cc2OC)c2cc(C)[nH]c2c1=O | 2 | 2 | 2 | 12 | > 10 | 2 | 2 | 2 | 2 | 2 | -4 | 2 | 5 | -1 | 2 | -1.5 | 2 | 1 | 2 | 6 | inhibition [13]: -7.5%; IC50 (NCI-H460): 2 µM; inhibition [14]: 3%; IC50 (SK-MES-1): 2 µM |
